According to patent US20220372498A1, “STABILIZER FOR ADENO-ASSOCIATED VIRUSES AND METHOD FOR STABILIZING ADENO-ASSOCIATED VIRUSES BY USING SAME” (priority 2020, published 2022):

How the values were obtained:
[1] = system: adeno-associated virus serotype 9 (AAV 9); assay: AAV stability with albumin alone (DLS, microscope); type: physicochemical; conditions: 0.5 mM tannic acid, about 10 minutes
Experimental: 50 uL of 0.5 mM tannic acid solution was mixed with 1×108 genome/ul AAV solution in which the albumin is present at various concentrations of 10%, 1%, 0.1%, 0.01% (w/w) (PBS, pH 7.4), respectively, and after about 10 minutes, the average particle size was measured through dynamic light scattering, and particle formation was observed under a microscope.

[2] = system: adeno-associated virus serotype 9 (AAV 9); assay: Crystal formation and average particle size after mixing surfactant-treated AAV solution with tannic acid solution (DLS, microscope); type: physicochemical; conditions: surfactant 0.05% (w/w) in AAV solution (PBS, pH 7.4) + 0.5 mM tannic acid, after about 10 minutes
Experimental: The present inventors tried to check the change in AAV stability by treating a surfactant to solve the problem of AAV aggregation when preparing a gene delivery system using AAV. To this end, the effect was verified for various types of surfactants known in the art. More specifically, after mixing 50 uL of 0.5 mM tannic acid solution with 1×108 genome/ul AAV solution in which each of Tween 80, Triton X, CHAPS, cetrimonium bromide (CTAB), and sodium deoxycholate was present in a concentration of 0.05% (w/w) (PBS, pH 7.4), and then after about 10 minutes, the average particle size was measured through dynamic light scattering (DLS), and the formation of crystals that could cause blood vessel clogging was observed under a microscope. At this time, as a condition not treated with a surfactant, 50 uL of a 1×108 genome/ul AAV solution (PBS, pH 7.4) was mixed with 50 uL of 0.5 mM tannic acid solution, and average particle size measurement and microscopic observation were performed in the same manner as above.

[3] = system: adeno-associated virus serotype 9 (AAV 9); assay: Crystal formation after mixing FBS with surfactant-containing AAV and tannic acid (microscope); type: physicochemical; conditions: surfactant 0.05% (w/w), 0.5 mM tannic acid, then 50 uL of 10% FBS
Experimental: Furthermore, the present inventors have attempted to verify whether the formation of a potential crystal structure that may block blood vessels when mixed with plasma may be suppressed through the treatment of a surfactant additionally. To this end, 50 uL of 0.5 mM tannic acid solution was mixed with 50 uL of 1×108 genome/ul AAV solution (PBS, pH 7.4) containing each of CTAB, Tween 80, and CHAPS in a concentration of 0.05% (w/w), and then about 5 minutes after, 50 uL of 10% FBS solution was mixed and observed whether crystals of 10 μm or larger were formed under a microscope.

[4] = system: adeno-associated virus serotype 9 (AAV 9); assay: AAV stability according to surfactant concentration (UV-Vis absorbance 600 nm scattering, microscope); type: physicochemical; conditions: 0.5 mM tannic acid
Experimental: 50 uL of 0.5 mM tannic acid solution was mixed with 1×108 genome/ul AAV solution in which Tween 80, a nonionic surfactant, is present in a concentration of 0.2%, 0.05%, 0.0125%, and 0.003% (w/w) (PBS, pH 7.4), respectively, and about 5 minutes after, UV-Vis absorbance in the 600 nm wavelength band was measured for scattering, and crystal formation was observed under a microscope.
In addition, under conditions in which Triton X, another nonionic surfactant, is present in a concentration of 0.05%, 0.0125, 0.003%, and 0.0008% (w/w), respectively, AAV and tannic acid solutions were mixed in the same method as above, and the same experiment was performed, and the result was observed.
50 uL of 0.5 mM tannic acid solution was mixed with 1×108 genome/ul AAV solution in which the zwitterionic surfactant CHAPS is present in a concentration of 0.4%, 0.1%, 0.025%, 0.006% (w/w) (PBS, pH 7.4), respectively, and after about 5 minutes, UV-Vis absorbance in the 600 nm wavelength band was measured for scattering, and crystal formation was observed under a microscope.
50 uL of 0.5 mM tannic acid solution was mixed with 1×108 genome/ul AAV solution in which the cationic surfactant CTAB is present in a concentration of 0.4%, 0.1%, 0.025%, 0.006% (w/w) (PBS, pH 7.4), respectively, and after about 5 minutes, UV-Vis absorbance in the 600 nm wavelength band was measured for scattering, and crystal formation was observed under a microscope.
50 uL of 0.5 mM tannic acid solution was mixed with 1×108 genome/ul AAV solution in which the anionic surfactant sodium deoxycholate is present in a concentration of 0.2%, 0.05%, 0.0125%, […] (w/w) (PBS, pH 7.4), respectively, and after about 5 minutes, UV-Vis absorbance in the 600 nm wavelength band was measured for scattering, and crystal formation was observed under a microscope.

[5] = system: adeno-associated virus serotype 9 (AAV 9); assay: In vitro stability of particle size over time (DLS; UV-Vis 600 nm scattering); type: physicochemical; conditions: surfactant 0.05% (w/w); 0 min, 30 min, 1 day; compared among Tween 80, CHAPS, sodium deoxycholate
Experimental: The size and shape of AAV particles must be maintained constantly from mixing to injection. Therefore, it was analyzed whether the particle size was maintained until after 30 minutes, which is a time taken from mixing to injection, and a sufficient time, one day. To this end, 50 uL of 0.5 mM tannic acid solution was mixed with 1×108 genome/ul AAV solution in which Tween 80 is present in a concentration of 0.01% (w/w) (PBS, pH 7.4), and then, after about 5 minutes, the average particle sizes were measured at 0 min, […], and 1 day, respectively, through a dynamic light scattering method, and the increase in particle sizes was compared with the initial value.
In addition, 50 uL of 0.5 mM tannic acid solution was mixed with 1×108 genome/ul AAV solution in which various types of surfactants, i.e., Tween 80, CHAPS, and sodium deoxycholate are present in a concentration of 0.05% (w/w) each (PBS, pH 7.4), and then, after about 5 minutes, UV-Vis absorbance of each 600 nm wavelength band was measured at 0 min (min), 30 min, and 1 day (day) to measure the scattering degree. The change in particle size over time was analyzed through an increase in scattering compared to the initial value.

[6] = Viability of mice after tail vein injection of AAV / tannic acid / Tween 80 mixtures; conditions: in vivo
Description: On the other hand, the presence or absence of the formation of such crystalline particles is one of the major factors affecting the survival of experimental animals in animal experiments. Crystalline particles of more than 10 μm can block capillaries in the body, and clogged blood vessels can cause ischemic disease, myocardial infarction, cerebral infarction, rupture of blood vessels, etc., and in severe cases, leading to death. Therefore, the present inventors tried to experimentally confirm how the crystallinity was confirmed in the results of FIG. 1A affects the survival of mice. To this end, 50 uL of 0.5 mM or 0.25 mM tannic acid solution was mixed with 50 uL of 2×109 genome/ul AAV solution containing Tween 80 in a concentration of 0.01% (w/w) (PBS, pH 7.4), and then viability was confirmed by injecting 100 uL of mixed solution into the tail vein of the mouse within about 30 minutes (0.01% (w/w) Tween 80+0.5 mM TA+AAV/0.01% (w/w) Tween 80+0.25 mM TA+AAV). In addition, as a condition with the absence of surfactant, 50 uL of 2×109 genome/ul AAV solution without Tween 80 was mixed with tannic acid under the same conditions and injected into the tail vein of mice (0.5 mM TA+AAV/0.25 mM TA+AAV). […]

[7] = surfactant 0.006% (w/w), PBS pH 7.4, about 5 minutes
[8] = surfactant 0.025% (w/w), PBS pH 7.4, about 5 minutes
[9] = surfactant 0.4% (w/w), PBS pH 7.4, about 5 minutes
[10] = surfactant 0.003% (w/w), PBS pH 7.4, about 5 minutes
[11] = surfactant 0.0125% (w/w), PBS pH 7.4, about 5 minutes

albumin
particle / crystal formation ([1]; albumin 0.01% (w/w)): crystal structure was formed
particle / crystal formation ([1]; albumin 0.1% (w/w)): micro-sized particles were formed
particle / crystal formation ([1]; albumin 1% (w/w)): crystal structure was formed
particle / crystal formation ([1]; albumin 10% (w/w)): crystal structure was formed

C[C@H](CCC(=O)NCCC[N+](C)(C)CCCS(=O)(=O)[O-])[C@H]1CC[C@H]2[C@@H]3[C@H](O)C[C@@H]4C[C@H](O)CC[C@]4(C)[C@H]3C[C@H](O)[C@]12C [CHAPS, 3-[(3-cholamidopropyl)dimethylammonio]-1-propanesulfonate]
formation of crystalline particles in which AAV was aggregated (microscope) [2]: not observed
formation of crystals of 10 μm or larger after mixing FBS [3]: crystals are not formed
particle / crystal formation [4, 7]: crystal structure was formed
particle / crystal formation [4, 8]: nano-sized particles were formed
particle / crystal formation ([4]; surfactant 0.1% (w/w), PBS pH 7.4, about 5 minutes): crystal structure was formed
particle / crystal formation [4, 9]: crystal structure was formed

sodium deoxycholate
formation of crystalline particles in which AAV was aggregated (microscope) [2]: large fibrous particles were observed
particle / crystal formation ([4]; all concentrations: 0.2%, 0.05%, 0.0125%, 0.0003% (w/w), PBS pH 7.4): crystal structure was formed

Triton X
formation of crystalline particles in which AAV was aggregated (microscope) [2]: not observed
particle / crystal formation ([4]; surfactant 0.0008% (w/w), PBS pH 7.4, about 5 minutes): nano-sized particles were formed
particle / crystal formation [4, 10]: nano-sized particles were formed
particle / crystal formation [4, 11]: crystal structure was formed
particle / crystal formation ([4]; surfactant 0.05% (w/w), PBS pH 7.4, about 5 minutes): crystal structure was formed

Tween 80
formation of crystalline particles in which AAV was aggregated (microscope) [2]: not observed
formation of crystals of 10 μm or larger after mixing FBS [3]: crystals are not formed
particle / crystal formation [4, 10]: crystal structure was formed
particle / crystal formation [4, 11]: nano-sized particles
particle / crystal formation ([4]; surfactant 0.2% (w/w), PBS pH 7.4, about 5 minutes): crystal structure was formed
change in particle size over time (increase in scattering, UV-Vis 600 nm) [5]: most stably maintained

CCCCCCCCCCCCCCCC[N+](C)(C)C.[Br-] [CTAB, cetrimonium bromide]
formation of crystalline particles in which AAV was aggregated (microscope) [2]: not observed
formation of crystals of 10 μm or larger after mixing FBS [3]: crystals are not formed
particle / crystal formation [4, 7]: crystal structure was formed
particle / crystal formation [4, 8]: nano-sized particles
particle / crystal formation [4, 9]: crystal structure was formed

O=C(OC[C@H]1O[C@@H](OC(=O)c2cc(O)c(O)c(OC(=O)c3cc(O)c(O)c(O)c3)c2)[C@H](OC(=O)c2cc(O)c(O)c(OC(=O)c3cc(O)c(O)c(O)c3)c2)[C@@H](OC(=O)c2cc(O)c(O)c(OC(=O)c3cc(O)c(O)c(O)c3)c2)[C@@H]1OC(=O)c1cc(O)c(O)c(OC(=O)c2cc(O)c(O)c(O)c2)c1)c1cc(O)c(O)c(OC(=O)c2cc(O)c(O)c(O)c2)c1 [TA, tannic acid]
Result (viability of mouse) [6]: Survival
